Experimental data: patent US5081121A, “4(1H)-quinolone derivatives” (priority 1988, dated 1992)
Like-named read-outs stand apart in the source and are kept apart here.

System: left atrial muscle
Experiment: Test Method 1: enhancement of contracting force of left atrial muscle extirpated from a guinea pig (electrically stimulated at 1 Hz)
Type: cell-based
Conditions: Krebs-Henseleit solution 32° C.; for EC20: read-out: EC20 (molar concentration for enhancing the left atrial muscle contracting force to the level of 20%); for EC50: read-out: EC50 (molar concentration for enhancing the left atrial muscle contracting force to the level of 50%); for EC100: read-out: EC100 (molar concentration for enhancing the left atrial muscle contracting force to the level of 100%)
Method: The drug according to the present invention was evaluated with reference to the physiological activities by means of a method using an atrial muscle extirpated from a guinea pig.
Male guinea pigs having a body weight of 300-500 g were made swooned by striking his head and were bleeded to death. The heart was extirpated and the right and left atrial muscles were cut off. The tops of each atrial muscle were fixed with cerrefines. The muscle was suspended into an organ-bath in which a Krebs-Henseleit solution (at 32° C.) was filled, and a 95% O2 -5% CO2 gas was flown through the bath. The left atrial muscle was stimulated electrically at a frequency of 1 Hz to stabilize the contracting force of the left atrial muscle. Then, the compounds according to the present invention represented by the general formulae were added to the organ-bath. As for the right atrial muscle, after the pulsation was stabilized, the compounds according to the present invention were added in the organ-bath in the same manner as described above.
The compounds according to the present invention represented by the aforementioned general formulae enhanced the left atrial muscle contracting force dependent on their concentrations. The drug concentrations for enhancing the left atrial muscle contracting force to the levels of 20%, 50% and 100%, respectively are listed in Table 2. EC20, EC50 and EC100 indicate the molar concentration for enhancing the left atrial muscle contracting force to the levels of 20%, 50% and 100%, respectively. The enhancing rates of the pulsation of the right atrial muscle are also listed within parentheses. The minus values in parentheses indicate that the pulsation of the right atrial muscle is decreased.
As a control drug, theophylline ([…].

EC50 (Cavia porcellus)	EC50	Structure (SMILES)	EC20 (Cavia porcellus)	EC100 (Cavia porcellus)	EC20 (molar concentration for enhancing the left atrial muscle contracting force to the level of 20%)	EC100 (molar concentration for enhancing the left atrial muscle contracting force to the level of 100%)
73.3 µM	–	CCOC(=O)c1c[nH]c2c(OC)cc(OCC)cc2c1=O [Compound 76, 6-ethoxy-3-ethoxycarbonyl-8-methoxy-4(1H)-quinolone]	38.9 µM	305 µM	–	–
135 µM	–	CCOCCOC(=O)c1c[nH]c2c(OC)ccc(OCC)c2c1=O [Compound 79, 5-ethoxy-3-[(2-ethoxy)ethoxycarbonyl]-8-methoxy-4(1H)-quinolone]	< 100 µM	680 µM	–	–
115 µM	–	CCn1ccc(=O)c2cc(OC)ccc21 [Compound 73, 1-ethyl-6-methoxy-4(1H)-quinolone]	< 100 µM	241 µM	–	–
345 µM	–	CCn1cc(C(=O)O)c(=O)c2cc(C)ccc21 [Compound 90, 3-carboxyl-1-ethyl-6-methyl-4(1H)-quinolone]	181 µM	394 µM	–	–
50.1 µM	–	CCOC(=O)c1cn(CC)c2c(OC)cc(OCC)cc2c1=O [Compound 77, 6-ethoxy-3-ethoxycarbonyl-1-ethyl-8-methoxy-4(1H)-quinolone]	4.73 µM	–	–	–
106 µM	–	CCOc1cc2c(=O)cc[nH]c2cc1OC [Compound 48, 6-ethoxy-7-methoxy-4(1H)-quinolone]	12.6 µM	646 µM	–	–
< 100 µM	–	CCOc1cc(OC)cc2c(=O)cc[nH]c12 [Compound 47, 8-ethoxy-6-methoxy-4(1H)-quinolone]	< 100 µM	200 µM	–	–
84.1 µM	–	CCOc1cc2c(=O)cc(C3CC3)[nH]c2cc1OC [Compound 119, 2-cyclopropyl-6-ethoxy-7-methoxy-4(1H)-quinolone]	37.6 µM	–	–	–
112 µM	–	CCn1ccc(=S)c2cc3c(cc21)OCO3 [Compound 63]	42.2 µM	–	–	–
–	63.1 µM	C/C=C/Cc1c(O)c(OC)cc2c(=O)cc[nH]c12 [Compound 72, 8-(2-trans-butenyl)-7-hydroxy-6-methoxy-4(1H)-quinolone]	–	–	35.5 µM	211 µM
117 µM	–	C=CCOc1cc2[nH]ccc(=O)c2cc1OC [Compound 53, 7-allyloxy-6-methoxy-4(1H)-quinolone]	< 100 µM	240 µM	–	–
19.3 µM	–	CCOc1cc2[nH]ccc(=O)c2cc1OCC [Compound 10, 6,7-diethoxy-4(1H)-quinolone]	1.88 µM	116 µM	–	–
78.5 µM	–	COc1cc(SC)c2[nH]ccc(=O)c2c1 [Compound 30, 6-methoxy-8-methylsufenyl-4(1H)-quinolone]	6.92 µM	881 µM	–	–
221 µM	–	COc1cc2[nH]cc(C(=O)N3CCC(c4ccccc4)CC3)c(=O)c2cc1OC [Compound 105, 6,7-dimethoxy-3-(4-phenylpiperidinyl)carbonyl-4(1H)-quinolone]	< 100 µM	–	–	–
136 µM	–	CC(=O)c1cccc2c(=O)cc[nH]c12 [Compound 44, 8-acetyl-4(1H)-quinolone]	< 100 µM	776 µM	–	–
279 µM	–	CCn1ccc(=O)c2cc3c(cc21)OCO3 [Compound 60, 1-ethyl-6,7-methylenedioxy-4(1H)-quinolone]	< 100 µM	–	–	–
126 µM	–	CCn1cc(C(=O)N2CCN(c3ccccc3OC)CC2)c(=O)c2cc(C)ccc21 [Compound 108, 1-ethyl-3-{1-[4-(2-methoxyphenyl)piperazinyl]carbonyl}-6-methyl-4(1H)-quinolone]	44.2 µM	–	–	–
202 µM	–	CCOc1cc2c(=O)c(C(=O)O)cn(CC)c2c(C)c1C [Compound 88, 3-carboxyl-7,8-dimethyl-6-ethoxy-1-ethyl-4(1H)-quinolone]	< 100 µM	856 µM	–	–
159 µM	–	C=CCc1cccc2c(=O)cc[nH]c12 [Compound 70, 8-(2-propenyl)-4(1H)-quinolone]	< 100 µM	–	–	–
327 µM	–	CCn1cc(C(=O)O)c(=O)c2c(C)cccc21 [Compound 87, 3-carboxyl-1-ethyl-5-methyl-4(1H)-quinolone]	< 100 µM	–	–	–

EC50 (Cavia porcellus)	EC50	Structure (SMILES)	EC20 (Cavia porcellus)	EC100 (Cavia porcellus)	EC20 (molar concentration for enhancing the left atrial muscle contracting force to the level of 20%)	EC100 (molar concentration for enhancing the left atrial muscle contracting force to the level of 100%)
274 µM	–	N#CCc1ccc2[nH]ccc(=O)c2c1 [Compound 45, 6-cyanomethyl-4(1H)-quinolone]	< 100 µM	510 µM	–	–
< 100 µM	–	COc1cc2[nH]c(-c3ccco3)cc(=O)c2cc1OC [Compound 94, 6,7-dimethoxy-2-(2-furyl)-4(1H)-quinolone]	< 100 µM	417 µM	–	–
107 µM	–	CCn1ccc(=O)c2c(O)ccc(C)c21 [Compound 61, 1-ethyl-5-hydroxy-8-methyl-4(1H)-quinolone]	< 100 µM	–	–	–
462 µM	–	CCOc1cc2c(cc1OC)c(=O)ccn2CC(C)C [Compound 69, 1-i-butyl-7-ethoxy-6-methoxy-4(1H)-quinolone]	4.32 µM	–	–	–
178 µM	–	CCn1cc(C(=O)N2CCN(c3ccc([N+](=O)[O-])cc3)CC2)c(=O)c2cc(OC)c(OC)cc21 [Compound 110, 6,7-dimethoxy-1-ethyl-3-{1-[4-(4-nitrophenyl)piperazinyl]carbonyl}-4(1H)-quinolone]	105 µM	–	–	–
19.5 µM	–	CCCCn1ccc(=O)c2cc(OC)c(OCC)cc21 [Compound 68, 1-n-butyl-7-ethoxy-6-methoxy-4(1H)-quinolone]	2.82 µM	–	–	–
465 µM	–	CCCn1cc(C(=O)O)c(=O)c2cc(OC)c(OCC)cc21 [Compound 93, 3-carboxyl-7-ethoxy-6-methoxy-1-n-propyl-4(1H)-quinolone]	376 µM	–	–	–
35.5 µM	–	COc1cc2[nH]ccc(=O)c2cc1OC [Compound 6, 6,7-dimethoxy-4(1H)-quinolone]	10 µM	234 µM	–	–
245 µM	–	COc1ccc(C)c2c(=O)c(C(=O)N3CCC(c4ccccc4)CC3)c[nH]c12 [Compound 106, 8-methoxy-5-methyl-3-(4-phenylpiperidinyl)carbonyl-4(1H)-quinolone]	102 µM	447 µM	–	–
248 µM	–	CCn1ccc(=O)c2ccc(C)cc21 [Compound 57, 1-ethyl-7-methyl-4(1H)-quinolone]	< 100 µM	–	–	–
657 µM	–	COc1cc2c(=O)c(C(=O)O)cn(C)c2c(C)c1C [Compound 89, 3-carboxyl-6-methoxy-1,7,8-trimethyl-4(1H)-quinolone]	< 100 µM	–	–	–
234 µM	–	O=c1cc[nH]c2ccc(CCO)cc12 [Compound 64, 6-(2-hydroxy)ethyl-4(1H)-quinolone]	157 µM	495 µM	–	–
54.3 µM	–	Cc1cc(Cl)cc2c(=O)cc[nH]c12 [Compound 71, 6-chloro-8-methyl-4(1H)-quinolone]	12.3 µM	–	–	–
394 µM	–	COCCOc1cc2[nH]ccc(=O)c2cc1OC [Compound 55, 6-methoxy-7-(2-methoxy)ethoxy-4(1H)-quinolone]	132 µM	–	–	–
345 µM	–	CCOC(=O)c1ccc2[nH]ccc(=O)c2c1 [Compound 65, 6-ethoxycarbonyl-4(1H)-quinolone]	< 100 µM	–	–	–
405 µM	–	COCOc1cc2[nH]ccc(=O)c2cc1OC [Compound 56, 6-methoxy-7-methoxymethoxy-4(1H)-quinolone]	114 µM	–	–	–
363 µM	–	CCOC(=O)c1c[nH]c2c(S(=O)(=O)c3ccccc3)cccc2c1=O [Compound 83, 3-ethoxycarbonyl-8-phenylsulfonyl-4(1H)-quinolone]	19.5 µM	–	–	–
374 µM	–	O=c1cc(C2CC2)[nH]c2ccccc12 [Compound 96, 2-cyclopropyl-4(1H)-quinolone]	123 µM	–	–	–
108 µM	–	CCOc1ccc2c(c1)c(=O)ccn2CC [Compound 74, 6-ethoxy-1-ethyl-4(1H)-quinolone]	< 100 µM	546 µM	–	–

Structure (SMILES)	EC50 (Cavia porcellus)	EC50	EC20 (Cavia porcellus)	EC100 (Cavia porcellus)	EC20 (molar concentration for enhancing the left atrial muscle contracting force to the level of 20%)	EC100 (molar concentration for enhancing the left atrial muscle contracting force to the level of 100%)
CCOC(=O)c1cn(CC)c2c(C)ccc(OC(C)=O)c2c1=O [Compound 82, 5-acetoxy-3-ethoxycarbonyl-1-ethyl-8-methyl-4(1H)-quinolone]	168 µM	–	< 100 µM	–	–	–
CCCCOc1cc2[nH]c(C3CC3)cc(=O)c2cc1OC [Compound 115, 7-n-butoxy-2-cyclopropyl-6-methoxy-4(1H)-quinolone]	81.3 µM	–	15.3 µM	202 µM	–	–
O=c1cc[nH]c2cc(N3CCNCC3)ccc12 [Compound 67, 7-piperazinyl-4(1H)-quinolone]	211 µM	–	46.8 µM	944 µM	–	–
